Test results published in US20220347196A1, “COMPOSITIONS AND METHODS FOR IMPROVING GASTROINTESTINAL FUNCTION IN SUBJECTS WITH RENAL DISEASE” (priority 2021, published 2022).

What was measured:
[1] = test system: subjects with ESRD on hemodialysis with constipation; assay: Bowel movement consistency and regularity after 12 week 2′-FL treatment; format: in vivo, human; conditions: five subjects, 3.3 grams/day for 12 weeks
Description: Five subjects with ESRD on hemodialysis with constipation were treated with 2′-FL (3.3 grams/day) for 12 weeks.

[2] = test system: Patients With ESRD On Hemodialysis With Constipation; assay: Nutrition, hemoglobin and inflammatory biomarkers measured each month during 12 week HMO treatment; format: in vivo, human
Description: Five subjects with ESRD on hemodialysis with constipation were treated with 2′-FL (3.3 grams/day) for 12 weeks. Meanwhile, nutrition, hemoglobin, and inflammatory biomarkers were measured in each of the these patients at each month during the treatment.

[3] = Patient 1, month of treatment 0 (baseline), 3.3 grams/day
[4] = Patient 1, month of treatment 1, 3.3 grams/day
[5] = Patient 1, month of treatment 2, 3.3 grams/day
[6] = Patient 1, month of treatment 3, 3.3 grams/day
[7] = Patient 2, month of treatment 0 (baseline), 3.3 grams/day
[8] = Patient 2, month of treatment 1, 3.3 grams/day
[9] = Patient 2, month of treatment 2, 3.3 grams/day
[10] = Patient 2, month of treatment 3, 3.3 grams/day
[11] = Patient 3, month of treatment 0 (baseline), 3.3 grams/day
[12] = Patient 3, month of treatment 1, 3.3 grams/day
[13] = Patient 3, month of treatment 2, 3.3 grams/day
[14] = Patient 3, month of treatment 3, 3.3 grams/day
[15] = Patient 4, month of tx 0 (baseline), 3.3 grams/day
[16] = Patient 4, month of tx 1, 3.3 grams/day
[17] = Patient 4, month of tx 2, 3.3 grams/day
[18] = Patient 4, month of tx 3, 3.3 grams/day
[19] = Patient 5, month of treatment 0 (baseline), 3.3 grams/day
[20] = Patient 5, month of treatment 1, 3.3 grams/day
[21] = Patient 5, month of treatment 2, 3.3 grams/day
[22] = Patient 5, month of treatment 3, 3.3 grams/day
[23] = five subjects, 3.3 grams/day for 12 weeks

Q: Which results are given for 2′-fucosyllactose [2′-FL]?
A: bowel movement consistency [1]: from hard stool to soft; bowel movement regularity (on average) [1]: from one bowel movement every other day to one bowel movement every day; Albumin [2, 3]: 3.6 g/dL; Ferritin [2, 3]: 548 ng/mL; Hg [2, 3]: 10.6 g/dL; Albumin [2, 4]: 3.7 g/dL; CRP [2, 4]: 0.7 mg/L; Ferritin [2, 4]: 546 ng/mL; Hg [2, 4]: 10.5 g/dL; Albumin [2, 5]: 3.8 g/dL; CRP [2, 5]: 0.5 mg/L; Ferritin [2, 5]: 503 ng/mL; Hg [2, 5]: 11.2 g/dL; Albumin [2, 6]: 3.5 g/dL; CRP [2, 6]: 0.3 mg/L; Ferritin [2, 6]: 364 ng/mL; Hg [2, 6]: 10.7 g/dL; Albumin [2, 7]: 4.2 g/dL; Ferritin [2, 7]: 1250 ng/mL; Hg [2, 7]: 11.2 g/dL; Albumin [2, 8]: 4.3 g/dL; CRP [2, 8]: 6.2 mg/L; Ferritin [2, 8]: 1188 ng/mL; Hg [2, 8]: 11.3 g/dL; Albumin [2, 9]: 4.2 g/dL; CRP [2, 9]: 4.3 mg/L; Ferritin [2, 9]: 1000 ng/mL; Hg [2, 9]: 10.6 g/dL; Albumin [2, 10]: 4.2 g/dL; CRP [2, 10]: 2.3 mg/L; Ferritin [2, 10]: 899 ng/mL; Hg [2, 10]: 10.2 g/dL; Albumin [2, 11]: 3.9 g/dL; Ferritin [2, 11]: 1243 ng/mL; Hg [2, 11]: 10.5 g/dL; Albumin [2, 12]: 4 g/dL; CRP [2, 12]: 19 mg/L; Ferritin [2, 12]: 1135 ng/mL; Hg [2, 12]: 11.3 g/dL; Albumin [2, 13]: 3.9 g/dL; CRP [2, 13]: 1.9 mg/L; Ferritin [2, 13]: 827 ng/mL; Hg [2, 13]: 10.9 g/dL; Albumin [2, 14]: 4 g/dL; CRP [2, 14]: 1.6 mg/L; Ferritin [2, 14]: 907 ng/mL; Hg [2, 14]: 11.2 g/dL; Albumin [2, 15]: 3.9 g/dL; Ferritin [2, 15]: 1487 ng/mL; Hg [2, 15]: 10.8 g/dL; Albumin [2, 16]: 3.9 g/dL; CRP [2, 16]: 2 mg/L; Ferritin [2, 16]: 1208 ng/mL; Hg [2, 16]: 10.5 g/dL; Albumin [2, 17]: 3.9 g/dL; CRP [2, 17]: 1.5 mg/L; Ferritin [2, 17]: 749 ng/mL; Hg [2, 17]: 11.3 g/dL; Albumin [2, 18]: 3.8 g/dL; CRP [2, 18]: 1.5 mg/L; Ferritin [2, 18]: 985 ng/mL; Hg [2, 18]: 11.4 g/dL; Albumin [2, 19]: 4.1 g/dL; Ferritin [2, 19]: 580 ng/mL; Hg [2, 19]: 12.2 g/dL; Albumin [2, 20]: 4.1 g/dL; CRP [2, 20]: 27.5 mg/L; Ferritin [2, 20]: 431 ng/mL; Hg [2, 20]: 12.6 g/dL; Albumin [2, 21]: 3.9 g/dL; CRP [2, 21]: 28 mg/L; Ferritin [2, 21]: 313 ng/mL; Hg [2, 21]: 12.2 g/dL; Albumin [2, 22]: 3.8 g/dL; CRP [2, 22]: 12.4 mg/L; Ferritin [2, 22]: 332 ng/mL; Hg [2, 22]: 12 g/dL; anemia (hemoglobin), average [2, 23]: improvement or stabilization; nutrition (albumin), average [2, 23]: improvement or stabilization; serum inflammatory marker CRP (C-reactive protein), average [2, 23]: significant and persistent reduction; serum inflammatory marker ferritin, average [2, 23]: significant and persistent reduction
